Reference: publication PMC9445672, “A novel angiotensin-I-converting enzyme inhibitory peptide from oyster: Simulated gastro-intestinal digestion, molecular docking, inhibition kinetics and antihypertensive effects in rats” (Frontiers in Nutrition, 2022)
Read-outs that look alike come from different tables or passages of the source. Residues, ends and D or L forms follow the SMILES beside them.

Columns and labels:
[1] = molecular target: T1, Angiotensin-I converting enzyme (ACE) (from rabbit lungs) (Oryctolagus cuniculus, UniProt P12822); experiment: ACE-inhibitory activity assay (HHL substrate, HPLC of hippuric acid); format: biochemical
T1 construct: Angiotensin-I converting enzyme (ACE) (from rabbit lungs); purchased Sigma-Aldrich Co. (St. Louis, MO, United States); host or cells: rabbit lung tissue
T1 sequence (P12822 34-1310): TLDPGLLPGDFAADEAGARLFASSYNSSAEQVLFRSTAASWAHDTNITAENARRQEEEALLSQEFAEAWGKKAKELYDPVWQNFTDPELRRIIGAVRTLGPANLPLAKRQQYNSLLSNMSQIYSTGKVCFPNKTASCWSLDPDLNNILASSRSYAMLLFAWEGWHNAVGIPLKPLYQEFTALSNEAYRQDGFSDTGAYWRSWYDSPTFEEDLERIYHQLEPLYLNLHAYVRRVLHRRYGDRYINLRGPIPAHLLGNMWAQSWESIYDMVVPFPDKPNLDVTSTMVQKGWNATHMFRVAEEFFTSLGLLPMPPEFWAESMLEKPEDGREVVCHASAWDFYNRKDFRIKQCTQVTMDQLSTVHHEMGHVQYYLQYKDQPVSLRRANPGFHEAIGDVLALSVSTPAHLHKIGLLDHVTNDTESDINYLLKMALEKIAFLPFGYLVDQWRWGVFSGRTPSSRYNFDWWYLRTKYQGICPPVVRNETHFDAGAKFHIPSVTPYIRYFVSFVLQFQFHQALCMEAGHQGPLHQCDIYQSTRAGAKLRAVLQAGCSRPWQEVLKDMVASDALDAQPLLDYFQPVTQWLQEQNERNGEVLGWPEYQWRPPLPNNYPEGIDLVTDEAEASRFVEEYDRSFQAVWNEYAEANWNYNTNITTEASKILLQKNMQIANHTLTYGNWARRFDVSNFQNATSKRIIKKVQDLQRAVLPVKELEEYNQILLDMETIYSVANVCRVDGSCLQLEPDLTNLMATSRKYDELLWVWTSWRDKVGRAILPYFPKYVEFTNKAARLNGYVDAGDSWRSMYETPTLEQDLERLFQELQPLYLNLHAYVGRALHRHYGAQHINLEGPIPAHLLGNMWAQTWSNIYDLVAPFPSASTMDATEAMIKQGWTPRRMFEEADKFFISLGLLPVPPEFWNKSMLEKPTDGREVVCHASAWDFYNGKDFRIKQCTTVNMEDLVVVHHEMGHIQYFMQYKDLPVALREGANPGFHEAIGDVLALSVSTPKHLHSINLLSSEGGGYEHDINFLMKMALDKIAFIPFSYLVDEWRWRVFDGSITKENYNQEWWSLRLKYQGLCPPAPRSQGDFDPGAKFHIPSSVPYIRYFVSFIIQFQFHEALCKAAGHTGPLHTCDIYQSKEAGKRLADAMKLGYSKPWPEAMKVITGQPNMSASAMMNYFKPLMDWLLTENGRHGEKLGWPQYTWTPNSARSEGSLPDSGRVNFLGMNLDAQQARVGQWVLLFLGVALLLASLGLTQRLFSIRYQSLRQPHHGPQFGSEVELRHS
Protocol: The ACEI activity of the synthesized peptides was measured following the reported method with a minor modification ([22]). The experiment was carried out in a 1.5 mL PE tube. Briefly, for each assay, 20 μL of the inhibitor (1 mg/ml) was mixed with 120 μL of the HHL solution in the concentration of 5 mM. The mixture was first preincubated at a constant temperature of 37°C for 5 min, 10 μL ACE (0.1 U/mL) was then added to start the reaction, and to incubate at 37°C for 60 min. In the end, 150 μl HCl (1M) was used to terminate the reaction. Meanwhile, the inhibitor solution was replaced with 20 μL boric acid buffer solution (0.1 mol/L, pH 7.3, containing 0.3 mol/L NaCl) as a blank control group. The HPLC system was equipped with a ZORBAX Eclipse SB-C18 column (5 μm particle size, 4.6 × 150 mm). To analyze the releasing amount of hippuric acid under the action of ACE, the elution was conducted in 25% Mobile Phase A (ACN) and 75% Mobile Phase B (0.05% TFA in ultrapure water) for 25 min with a flow rate of 0.8 mL/min. The ACE inhibitory activity percentage (%) was calculated based on the equation below:
ACEinhibitionrate(%)=(B-S)/B×100
Where B and S are the chromatographic peak areas of the control group and the sample tested, respectively. IC50 is the inhibitor concentration capable of inhibiting 50% of ACE activity under the described experimental conditions, which was estimated by non-linear regression of ACE inhibition (%) against different inhibitor concentrations by using SPSS software.

[2] = molecular target: T1, Angiotensin-I converting enzyme (ACE) (from rabbit lungs); experiment: Kinetics of ACE inhibition (Lineweaver-Burk plot); format: biochemical; conditions: HHL 1–10 mM, peptide 1 and 2 mg/mL
Protocol: To explore the inhibition pattern of the peptide and clarify the kinetics of ACEI activity, the Lineweaver-Burk plot was employed in our study. The various concentrations of the HHL solution were 1, 2, 5, 8, and 10 mM, and the concentration of synthesized peptide was set as 2 mg/mL. Various concentrations of HHL and peptide were incubated in ACE solutions. The Y-intercept of the Lineweaver-Burk plot represents the reciprocal of the maximum velocity (Vmax^–1), while the X-intercept is the reciprocal of the Michaelis-Menten constant (Km^–1).

[3] = molecular target: T1, Angiotensin-I converting enzyme (ACE) (from rabbit lungs); experiment: ACE-inhibitory activity assay (HHL substrate, HPLC of hippuric acid); format: biochemical; conditions: peptide 2 mg/mL, HHL 5 mM, ACE 0.1 U/mL, 37°C, 5 min pre-incubation, 60 min, triplicate
[4] = tested on: SHRs (spontaneously hypertensive rats); experiment: Blood pressure of SHRs after single intragastric administration (tail-cuff); format: in vivo, rat
Protocol: Male SHRs aged 10–12 weeks old, body weight (BW) of 220–250 g, and blood pressure over 180 mmHg were purchased from Trophic Animal Feed High-tech Co. Ltd., (Nantong, China). Six SHRs were administrated individually in each cage with the stable room temperature (25 ± 0.5°C), the humidity of 55 ± 5%, and a 12-h light to12-h dark cycle. Food and water were freely accessed. Rats were accustomed to the above environment for 2 weeks before the experiment. […] The SHRs were randomly grouped in 3. Rats were gavage administered with peptide at 15 mg/kg⋅BW/day in the experiment group. […] All rats were gavaged with their daily dose at 8 am, and the blood pressure was measured every 3 h by 4 times, which was using the tail-cuff method ([27]). Briefly, rats were covered with a fixed device but could let their tail leak out (MK2000ST, Muromachi Kikai Co., Ltd., Japan). A cuff was curled around the tail to measure the diastolic blood pressure (DBP) and systolic blood pressure (SBP).

ACE = conditions: cited from earlier work
Description: The inhibitory patterns of the ACEI peptides mainly contain competitive inhibition, non-competitive inhibition, and mixed inhibition according to their various structures. […] Non-competitive A ... || The Lineweaver-Burk plots were employed to elucidate the ACE inhibition kinetic of the synthetic peptide […], shown in Figure 2B. Whereas the Vmax was the same when the concentrations of the inhibitory peptide increased, the Km/Vmax value increased. […] Among all the ACE inhibition patter ...

[5] = tested on: Ren1 / Adrb3 expression in SHRs; parameters: method as in 2 sources, one per row (each row's own in cited_ref): ref [45] = [45]; PMID 24404915; doi:10.1021/jf405189y; 45. Yu ZP Yin YG Zhao WZ Chen F Liu JB . Antihypertensive effect of angiotensin-converting enzyme inhibitory peptide RVPSL on spontaneously hypertensive rats by regulating gene expression of the renin ||| ref [46] = [46]; PMID 26517713; doi:10.1371/journal.pone.0142016; 46. Feng J Dai Z Zhang Y Meng L Ye J Ma X . Alteration of gene expression profile in kidney of spontaneously hypertensive rats treated with protein hydrolysate of blue mussel ( Mytilus edulis ) by DNA; conditions: SHRs orally administered 50 mg/kg; ref [45]; cited from earlier work
[6] = peptide 1 mg/mL, HHL 5 mM, ACE 0.1 U/mL, 37°C, 5 min pre-incubation, 60 min, HPLC of hippuric acid, triplicate
[7] = clinical drugs for hypertension, ref [30]
[8] = food-derived peptides, ref [41], [42]
[9] = food-derived peptides, ref [32], [37]
[10] = food-derived peptides, ref [43], [44]

Row | ACE inhibition rate (%) Concentration (1 mg/mL) [1, 6] | ACE inhibition rate (%) Concentration (2 mg/mL) [3] | Compound | ACE inhibitory pattern (ACE; [9]) | other results
1 | 14.2857% | 29.3266% | CC(C)C[C@H](NC(=O)[C@H](Cc1ccc(O)cc1)NC(=O)[C@H](CCC(=O)O)NC(=O)[C@H](C)N)C(=O)N[C@@H](CS)C(=O)N[C@@H](CCC(=O)O)C(=O)N[C@@H](C)C(=O)N[C@@H](CS)C(=O)O (H-AEYLCEAC-OH) | – | inhibition at 1000 µg/mL ([1]; peptide 1 mg/mL, HHL 5 mM, ACE 0.1 U/mL, 37°C, 5 min pre-incubation, 60 min, HPLC of hippuric acid, triplicate, read-out: ACE inhibition rate (%) Concentration (1 mg/mL)): 14.3%; IC50 ([1]; peptide 0.2–15 mg/mL, HPLC method, regression y = −0.0073x^2 + 0.1616x −0.0105 (R^2 = 0.99), read-out: IC50 of ACE inhibition): 4.29 mM; Km/Vmax value with increasing inhibitory peptide concentration [2]: increased; inhibition at 2000 µg/mL ([3]; read-out: ACE inhibition rate (%) Concentration (2 mg/mL)): 29.3%
2 | – | – | C[C@H](CS)C(=O)N1CCC[C@H]1C(=O)O [captopril] | – | blood pressure reduction in rats with hypertension, overall comparison ([4]; all data of single and 4-week administration in SHRs): better than AEYLCEAC; SBP after a single intragastric administration ([4]; male SHRs, gavage, peptide 15 mg/kg BW, captopril 10 mg/kg BW, 3 to 12 h, vs water control, p < 0.01): SBP in control group was significantly higher than that in the peptide group and positive group
3 | – | – | CCOC(=O)[C@H](CCc1ccccc1)N[C@@H](C)C(=O)N1CCC[C@H]1C(=O)O [enalapril] | – | ACE inhibitory pattern (ACE; [7]): competitive inhibitors
4 | – | – | NCCCC[C@H](N[C@@H](CCc1ccccc1)C(=O)O)C(=O)N1CCC[C@H]1C(=O)O [lisinopril] | – | ACE inhibitory pattern (ACE; [7]): competitive inhibitors
5 | – | – | ALVY [from Gac Seed Protein Hydrolysates] | – | ACE inhibitory pattern (ACE; [8]): competitive
6 | – | – | AVKVL [derived from hazelnut] | Non-competitive | –
7 | – | – | EPNGLLLPQY [from walnut protein] | – | ACE inhibitory pattern (ACE; [10]): mixed pattern
8 | – | – | ETSGMKPTEL [isolated from longan seeds] | Non-competitive | –
9 | – | – | ISSMGILVCL [isolated from longan seeds] | Non-competitive | –
10 | 3.6918% | 13.9971% | LDVSWASD | – | –
11 | –1.1236% | –5.7205% | LSSNLHG | – | –
12 | – | – | NMAINPSKENLCSTFCK [isolated from casein hydrolysates] | – | ACE inhibitory pattern (ACE; [10]): mixed pattern
13 | – | – | QAGLSPVR [from tilapia skin gelatin] | Non-competitive | –
14 | –3.8523% | –5.0688% | QEVVMGEC | – | –
15 | – | – | QLVP [from Mycelia of Ganoderma Lucidum] | – | ACE inhibitory pattern (ACE; [10]): mixed pattern
16 | –13.9647% | –4.3447% | RSNDGPI | – | –
17 | – | – | RVPSL [hydrolyzed from egg white protein] | – | Ren1 expression [5]: downregulated
18 | – | – | SSYYPFK [from naked oat globulin hydrolysates] | – | ACE inhibitory pattern (ACE; [8]): competitive
19 | – | – | TLVGR [derived from hazelnut] | Non-competitive | –
20 | –4.8796% | 7.9218% | TNEVEGPS | – | –
21 | – | – | VGLPNSR [from tilapia skin gelatin] | Non-competitive | –
22 | 1.6051% | 4.7219% | VILGDADLP | – | –
23 | – | – | YLVR [derived from hazelnut] | Non-competitive | –
